Reference: patent publication US6455556B2, “Crystal modifications of 1-(2,6-difluorobenzyl)-1H-1,2,3-triazole-4-carboxamide” (Novartis AG, priority 1997, dated 2002)

Experiment: dissolution rate in water and gastric fluid
Type: physicochemical
Details: compared with modification A or A′

- dissolution rate in gastric fluid (gastric fluid): substantially faster
- dissolution rate in water (water): substantially faster
Structure (SMILES): NC(=O)c1cn(Cc2c(F)cccc2F)nn1 [modification B, 1-(2,6-difluorobenzyl)-1H-1,2,3-triazole-4-carboxamide]
